Measurements published in US8268867B2, “1,3-dioxane carboxylic acids” (Cadila Healthcare Limited, priority 2006, dated 2012).
Where a name gives a salt, the structure may show the parent alone.

Legend:
Swiss albino mice = experiment: Serum triglyceride lowering activity in Swiss albino mice; format: in vivo; conditions: Mus musculus, po, 144 h; male Swiss albino mice, 10 mg/kg/day orally for 6 days, serum 1 hour after dosing on 6th day
Method: Male Swiss albino mice (SAM) were bred in Zydus animal house. All these animals were maintained under 12 hour light and dark cycle at 25±1° C. Animals were given standard laboratory chow (NIN, Hyderabad, India) and water ad libitum. SAM of 20-30 g body weight range was used. The protocol approved by Institutional Animal Ethics Committee is being used.
The test compounds were administered orally to Swiss albino mice at 0.001 to 50 mg/kg/day dose for 6 days. The compound was administered after suspending it in 0.25% CMC or dissolving it in water, when compound is water-soluble. Control mice were treated with vehicle (0.25% of Carboxymethyl cellulose; dose 10 ml/kg).
The blood samples were collected on 0th day and in fed state 1 hour after drug administration on 6th day of the treatment. The blood was collected in non heparinised capillary and the serum was analyzed for triglyceride (Wieland, O. Methods of Enzymatic analysis. Bergermeyer, H., O., Ed., 1963. 211-214; Trinder, P. Ann. Clin. Biochem. 1969. 6: 24-27). Measurement of serum triglyceride was done using commercial kits (Zydus-Cadila, Pathline, Ahmedabad, India).
Percentage Reduction in Triglycerides was Calculated According to the Formula: […]

C57BL/KsJ-db/db mice = experiment: Serum glucose and triglycerides lowering activity in db/db mice; format: in vivo; conditions: male db/db mice, 3 mg/kg/day oral gavage for 6 days, 1 hour after dosing on 6th day
Method: Homozygous animal C57BL/KsJ-db/db mice are obese, hyperglycemic, hyperinsulinemic and insulin resistant (J. Clin. Invest, 85, 962-967, 1990), whereas heterozygous are lean and normoglycemic. The homozygous animals very closely mimic the human type H diabetes when blood sugar levels are not sufficiently controlled. Since this type of model resembles human type II diabetes mellitus, the compounds of the invention were tested for their antidiabetic activity in this model.
Male C57BL/KsJ-db/db mice of 8 to 14 weeks age, having body weight range of 40 to 60 grams, procured from the Jackson Laboratory, USA, were used in the experiment.
Test compounds were suspended on 0.25% carboxymethyl cellulose or dissolved in water when the compound is water soluble and administered to test group containing 6 animals at a dose of 0.001 mg to 50 mg/kg through oral gavage daily for 6 days. The control group received vehicle (dose 10 ml/kg). On the 6th day, one hour after the drug dosing, blood was collected from retro-orbital sinus and the serum was analyzed for glucose and triglycerides were measured using commercial kits (Zydus-Cadila, Pathline, Ahmedabad, India). The serum glucose and triglyceride lowering activities of the test compound was calculated according of the formula: […]

Row | Structure (SMILES) | melting point [°C] | inhibition in vivo at 10 mg/kg/day (Swiss albino mice) [%] | Plasma TG reduction (%) (C57BL/KsJ-db/db mice) | Serum Glucose reduction (%) (C57BL/KsJ-db/db mice)
1 | CC(=NOCCCCC1COC(C)(C(=O)O)OC1)c1ccc2ccccc2c1 (centres unmarked) (as salt: sodium) [Example 84, Sodium Salt of 2-Methyl-5-[4-(1-naphthalen-2-yl-ethylideneaminooxy)-butyl]-[1,3]dioxane-2-carboxylic Acid] | 240 | – | – | –
2 | CC(=NOCCCCC1COC(C)(C(=O)O)OC1)c1ccc(C(F)(F)F)cc1 (centres unmarked) [Example 44, 2-Methyl-5-{4-[1-(4-trifluoromethyl-phenyl)-ethylideneaminooxy]-butyl}-[1,3]dioxane-2-carboxylic Acid] | – | 40 | – | –
3 | CC(=NOCCCCC1COC(C)(C(=O)O)OC1)c1ccc(Cl)cc1 (centres unmarked) [Example 46, 5-{4-[1-(4-Chloro-phenyl)-ethylideneaminooxy]-butyl}-2-methyl-[1,3]dioxane-2-carboxylic Acid] | – | 39 | – | –
4 | CC(=NOCCCCC1COC(C)(C(=O)O)OC1)c1ccc(C)cc1 (centres unmarked) [Example 48, 2-Methyl-5-[4-(1-p-tolyl-ethylideneaminooxy)-butyl]-[1,3]dioxane-2-carboxylic Acid] | – | 64 | 44 | 14
5 | CC(=NOCCCCC1COC(C)(C(=O)O)OC1)c1ccc(F)c(Cl)c1 (centres unmarked) [Example 49, 5-{4-[1-(3-Chloro-4-fluoro-phenyl)-ethylideneaminooxy]-butyl}-2-methyl-[1,3]dioxane-2-carboxylic Acid] | – | 51 | – | –
6 | CCc1ccc(C(C)=NOCCCCC2COC(C)(C(=O)O)OC2)cc1 (centres unmarked) [Example 52, 5-{4-[1-(4-Ethyl-phenyl)-ethylideneaminooxy]-butyl}-2-methyl-[1,3]dioxane-2-carboxylic Acid] | – | 36 | – | –
7 | CCOc1ccc(C(C)=NOCCCCC2COC(C)(C(=O)O)OC2)cc1 (centres unmarked) [Example 55, 5-{4-[1-(4-Ethoxy-phenyl)-ethylideneaminooxy]-butyl}-2-methyl-[1,3]dioxane-2-carboxylic Acid] | – | 46 | – | –
8 | COc1ccc(C(C)=NOCCCCC2COC(C)(C(=O)O)OC2)cc1C (centres unmarked) [Example 57, 5-{4-[1-(4-Methoxy-3-methyl-phenyl)-ethylideneaminooxy]-butyl}-2-methyl-[1,3]dioxane-2-carboxylic Acid] | – | 43 | – | –
9 | COc1ccc(C(C)=NOCCCCC2COC(C)(C(=O)O)OC2)cc1OC (centres unmarked) [Example 59, 5-{4-[1-(3,4-Dimethoxy-phenyl)-ethylideneaminooxy]-butyl}-2-methyl-[1,3]dioxane-2-carboxylic Acid] | – | 22 | – | –
10 | CC(=NOCCCCC1COC(C)(C(=O)O)OC1)c1ccc(CC(C)C)cc1 (centres unmarked) [Example 60, 5-{4-[1-(4-Isobutyl-phenyl)-ethylideneaminooxy]-butyl}-2-methyl-[1,3]dioxane-2-carboxylic Acid] | – | 62 | – | –
11 | COc1ccc(C(C)=NOCCCCC2COC(C)(C(=O)O)OC2)cc1F (centres unmarked) [Example 61, 5-{4-[1-(3-Fluoro-4-methoxy-phenyl)-ethylideneaminooxy]-butyl}-2-methyl-[1,3]dioxane-2-carboxylic Acid] | – | 44 | – | –
12 | CC(=NOCCCCCC1COC(C)(C(=O)O)OC1)c1ccc2ccccc2c1 (centres unmarked) [Example 62, 2-Methyl-5-[5-(1-naphthalen-2-yl-ethylideneaminooxy)-pentyl]-[1,3]dioxane-2-carboxylic Acid] | – | 69 | – | –
13 | CC(=NOCCCCC1COC(C)(C(=O)O)OC1)c1ccc2ccccc2c1 (centres unmarked) [Example 63, 2-Methyl-5-[4-(1-naphthalen-2-yl-ethylideneaminooxy)-butyl]-[1,3]dioxane-2-carboxylic Acid] | – | 84 | 59 | 41
14 | CC(=NOCCCCC1COC(C)(C(=O)O)OC1)c1ccc2c(c1)CCCC2 (centres unmarked) [Example 64, 2-Methyl-5-{4-[1-(5,6,7,8-tetrahydro-naphthalen-2-yl)-ethylideneaminooxy]-butyl}-[1,3]dioxane-2-carboxylic Acid] | – | 85 | 46 | 31
15 | COc1ccc(C(C)=NOCCCCC2COC(C)(C(=O)O)OC2)cc1 (centres unmarked) [Example 66, 5-{4-[1-(4-Methoxy-phenyl)-ethylideneaminooxy]-butyl}-2-methyl-[1,3]dioxane-2-carboxylic Acid] | – | 50 | 45 | 27
16 | CC(=NOCCCCC1COC(C)(C(=O)O)OC1)c1ccc(OS(C)(=O)=O)cc1 (centres unmarked) [Example 67, 5-{4-[1-(4-Methanesulfonyloxy-phenyl)-ethylideneaminooxy]-butyl}-2-methyl-[1,3]dioxane-2-carboxylic Acid] | – | 75 | 48 | 12
17 | CC(=NOCCCCC1COC(C)(C(=O)O)OC1)c1cccs1 (centres unmarked) [Example 68, 2-Methyl-5-[4-(1-thiophen-2-yl-ethylideneaminooxy)-butyl]-[1,3]dioxane-2-carboxylic Acid] | – | 33 | – | –
18 | CC(=NOCCCCC1COC(C)(C(=O)O)OC1)c1ccc2c(c1)OCO2 (centres unmarked) [Example 69, 5-[4-(1-Benzo[1,3]dioxol-5-yl-ethylideneaminooxy)-butyl]-2-methyl-[1,3]dioxane-2-carboxylic acid] | – | 61 | – | –
19 | CC(=NOCCCCC1COC(C)(C(=O)O)OC1)c1ccc(-c2ccccc2)cc1 (centres unmarked) [Example 70, 5-[4-(1-Biphenyl-4-yl-ethylideneaminooxy)-butyl]-2-methyl-[1,3]dioxane-2-carboxylic Acid] | – | 49 | 52 | 26
20 | CC(=NOCCCCC1COC(C)(C(=O)O)OC1)c1cccc(C)c1 (centres unmarked) [Example 76, 2-Methyl-5-[4-(1-m-tolyl-ethylideneaminooxy)-butyl]-[1,3]dioxane-2-carboxylic Acid] | – | 67 | – | –
21 | CCC(=NOCCCCC1COC(C)(C(=O)O)OC1)c1ccc(OC)cc1 (centres unmarked) [Example 77, 5-{4-[1-(4-Methoxy-phenyl)-propylideneaminooxy]-butyl}-2-methyl-[1,3]dioxane-2-carboxylic Acid] | – | 39 | – | –
22 | CCC(=NOCCCCC1COC(C)(C(=O)O)OC1)c1ccc(C)cc1 (centres unmarked) [Example 78, 2-Methyl-5-[4-(1-p-tolyl-propylideneaminooxy)-butyl]-[1,3]dioxane-2-carboxylic Acid] | – | 42 | – | –
23 | CCCCCCCCOC(=O)C1(C)OCC(CCCCON=C(C)c2ccc3ccccc3c2)CO1 (centres unmarked) [Example 83, Octyl-2-methyl-5-[4-(1-naphthalen-2-yl-ethylideneaminooxy)-butyl]-[1,3]dioxane-2-carboxylate] | – | 61 | – | –
